Entries after “also recorded” stand apart in the source; their conditions may differ. Where two headings read alike, the source gives them in different places.
Columns and labels:
PTP1B1-405 = target: T1, PTP1B1-405 (Homo sapiens, UniProt P18031); assay: PTP1B phosphatase activity assay, DiFMUP substrate, long form; type: biochemical
T1 construct: PTP1B1-405 (the long form of PTP1B which contains the extended C-terminal segment); made in house; host or cells: Escherichia coli BL21 (DE3)-RIL
T1 sequence (P18031 1-405): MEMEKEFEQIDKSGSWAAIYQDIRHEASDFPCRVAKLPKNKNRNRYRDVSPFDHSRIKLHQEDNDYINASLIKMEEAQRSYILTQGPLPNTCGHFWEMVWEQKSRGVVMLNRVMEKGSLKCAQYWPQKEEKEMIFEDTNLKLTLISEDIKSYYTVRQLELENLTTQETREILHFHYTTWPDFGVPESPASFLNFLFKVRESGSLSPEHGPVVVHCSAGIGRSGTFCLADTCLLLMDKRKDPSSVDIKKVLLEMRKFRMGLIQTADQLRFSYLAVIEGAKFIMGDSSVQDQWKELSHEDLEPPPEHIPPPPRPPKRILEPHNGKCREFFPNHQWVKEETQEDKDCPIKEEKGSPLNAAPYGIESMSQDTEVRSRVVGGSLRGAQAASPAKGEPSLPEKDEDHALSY
Description: (§1) All common reagents were obtained from Thermo Fisher Scientific (Waltham, MA) or Sigma-Aldrich (St. Louis, MO). Difluoro-4-methylumbelliferyl phosphate (DiFMUP) was obtained from Invitrogen (cat #D22065). Solid black 384-well plates (cat #3573) for phosphatase assays were from Corning Incorporated (Corning, NY).
(§2) Wild-type PTP1B containing a His-tag was expressed in Escherichia coli BL21 (DE3)-RIL using LB. Cells were resuspended in lysis buffer (50 mM Hepes pH 7.2, 150 mM NaCl, 10 mM imidazole, 2 mM TCEP) with cOmplete EDTA-free Protease Inhibitor Cocktail (Roche), and then lysed using a sonicator at 4° C. Lysates were clarified by centrifugation. Initial protein purification was by gravity flow, nickel column chromatography. Protein was used immediately or stored at −80° C. in 50 mM HEPES pH 7.4, 100 mM NaCl, 2 mM dithiothreitol and 25% glycerol.

[1] = tested on: fibroblasts derived from Wilson's disease patients; assay: Copper-induced toxicity in Wilson's disease patient-derived fibroblasts; type: cell-based
Description: HepG2 cells purchased from ATCC were cultured in RPMI media containing 10% FBS, 5% CO2 at 37 C. Control (AG09319) and Wilson's disease patient-derived fibroblasts (GM00032, GM00033, GM05257, GM12158, GM05798 and GM11778) were obtained from Coriell Biorepository and cultured in DMEM, 10% FBS, 5% CO2 at 37° C.
For cell survival assays, 10,000 cells were seeded in a 96 well plate and cultured until fully confluent (90%). To these cells, ATP7B siRNAs or scrambled siRNA (negative control) purchased from Qiagen and Santa Cruz Biotechnology were transfected. Lipofectamine RNAiMAX reagent (Thermofischer) and siRNAs were diluted into a final volume of 100 μl in Opti-MEM (Gibco). The mixture was incubated at room temperature for 30 min, following which 800 μl of Opti-MEM was added to the mixture. The above transfection solution was overlaid onto cells at a final concentration of 5 nM siRNA. Transfection of HepG2 cells with scrambled siRNA served as negative control. Twelve hours after the transfection, complete media was added to each well. Following which, knockdown efficiency was checked (24 hours later) and cells were exposed to varying concentration of copper (0-1 mM) for 12 h and cell viability was determined using the MTT assay as previously described (37). […]

PTP1B1-321 = target: T2, PTP1B1-321 (Homo sapiens, UniProt P18031); assay: PTP1B phosphatase activity assay, short form; type: biochemical
T2 construct: C-terminally truncated PTP1B (1-321); made in house; host or cells: Escherichia coli BL21 (DE3)-RIL
T2 sequence (P18031 1-321): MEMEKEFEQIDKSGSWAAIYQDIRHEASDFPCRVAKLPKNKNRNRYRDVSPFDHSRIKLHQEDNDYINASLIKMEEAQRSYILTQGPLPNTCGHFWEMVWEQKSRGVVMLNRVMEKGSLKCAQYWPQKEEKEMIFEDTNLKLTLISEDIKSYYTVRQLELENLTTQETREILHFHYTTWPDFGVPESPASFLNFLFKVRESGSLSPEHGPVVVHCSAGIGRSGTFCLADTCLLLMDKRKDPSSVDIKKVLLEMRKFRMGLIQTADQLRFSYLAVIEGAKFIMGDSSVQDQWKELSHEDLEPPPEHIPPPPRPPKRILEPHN
Description: as §1, §2

[2] = Glucose tolerance and insulin tolerance tests; type: in vivo, C57Bl6/J mice; details: HFD-fed mice, orally or intraperitoneally
Description: All protocols were approved by the Institutional Animal Use and Care Committee of Cold Spring Harbor laboratory. 10 week-old male mice fed chow diet or high-fat diet (D12492) were acclimatized for 10 days under standard conditions before experiments. Mice were injected intraperitoneally (i.p.) once daily with vehicle, 5 mg/kg of DPM-1001 intraperitoneally or orally for 50 days. Mice were euthanized after 6 h of fasting, and serum samples were collected to measure the metabolic parameters and tissue samples were collected for studying changes in signaling.
Glucose in tail blood was measured using a glucometer (One-Touch Basic; Lifescan, CA). For glucose tolerance tests (GTTs), mice were fasted for 10 hours and then injected 20% D-glucose (2 mg/g body weight) and the blood glucose was monitored immediately before and at 15, 30, 60 and 120 mins following the injection. For insulin tolerance tests (ITTs), 4-h fasted animals were given insulin (0.75 mU/g) and blood glucose was measured immediately before and at 30, 60 and 120 minutes postinjection. Statistical analysis was performed using ANOVA for both GTT and ITT.

TNBC cells = assay: Cellular copper levels by ICP-MS; type: cell-based
Description: TNBC cells (1×10^6) were plated in a 10-cm culture dish in growth medium. About 24 h after seeding cells, they were untreated or treated with DPM-1001 (2 uM) or DPM-1003 (2 uM) for 2 h. Following which, cells were washed three times with PBS. Then, 215 μl of concentrated nitric acid (BDH Aristar Ultra) was added to each sample and incubated overnight. Samples were boiled at 95° C. for 1 h. and approximately 150 μl of each sample was further diluted in 2 ml 2% nitric acid (made freshly from concentrated nitric acid and Milli-Q water). Samples were analyzed on a Thermo Fisher iCAP Qc ICP mass spectrometer in kinetic energy discrimination (KED) mode against a calibration curve of known copper and phosphorus concentrations, with Ga (20 μg/l, Inorganic Ventures) as an internal standard. Each experiment was carried out twice and each condition was repeated in at least triplicate.

[3] = enzyme-inhibitor complex diluted, activity recovery monitored

In the case of `COC(=O)CCC(C)C1CCC2C3C(O)CC4CC(NCCCCNCc5ccccn5)CCC4(C)C3CCC12C` (stereo not shown) [DPM-1001], the IC50 (PTP1B1-405; after a 30 minute pre-incubation, read-out: IC50 for PTP1B1-405) is reported as 100 nM, the IC50 (PTP1B1-405; compound pre-incubated with PTP1B, read-out: IC50, inhibition of PTP1B) is reported as 100 nM and the “reversibility of inhibition of PTP1B1-405” value (PTP1B1-405; [3]) is reported as “remained inactive over an extended period of time”. The IC50 (PTP1B1-405; long form PTP1B1-405, DiFMUP substrate (FIG. 1), read-out: IC50, inhibition of the phosphatase) was 100 nM, the IC50 (PTP1B1-405; no pre-incubation, read-out: IC50 for PTP1B1-405) was 600 nM and the “time dependence of inhibition of PTP1B1-405” value (PTP1B1-405; presence of catalase) was “no obvious time dependence of inhibition”. For the same molecule, the “time dependence of inhibition of PTP1B1-405” value (PTP1B1-405; presence or absence of PRX1) was “time-dependent increase in potency”, the “protection from copper-induced cell death” value [1] was “prevents such cytotoxic effects; also recorded: inhibited copper-induced cell death” and the “reversibility of inhibition of PTP1B1-321” value (PTP1B1-321; [3]) was “reversibly”. The “time dependent change in the IC50 for PTP1B1-321” value (PTP1B1-321; varying incubation times) was “no obvious time dependent change”, the glucose tolerance ([2]; D-glucose 2 mg/g) was “lower rise in blood glucose levels; also recorded: improved glucose tolerance” and the “insulin sensitivity (insulin tolerance test)” value ([2]; insulin 0.75 mU/g) was “enhanced the effect of insulin to reduce blood glucose levels; also recorded: improved”. For the same molecule, the cellular copper levels (TNBC cells) was “depletion of copper; also recorded: reduces cellular copper levels”.
